Key:
Phaedon cochleariae = Phaedon cochleariae - spray test (PHAECO); type: in vivo; details: application rate 100 g/ha, Chinese cabbage leaf disks
Summary of the method: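 Active compound in acetone/dimethylformamide with alkylaryl polyglycol ether emulsifier was diluted with emulsifier-containing water to the test concentration and sprayed. After the set period, efficacy was scored as % larvae killed (100% = all beetle larvae dead, 0% = none).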

Spodoptera frugiperda = Spodoptera frugiperda - spray test (SPODFR); type: in vivo; details: application rate 100 g/ha, maize leaf disks
Summary of the method: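 Maize leaf disks sprayed with compound in acetone/DMF with alkylaryl polyglycol ether emulsifier, diluted in water to test concentration, then infested with armyworm caterpillars once dry. Efficacy given as % caterpillars killed (100% all, 0% none) after the chosen period.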

Musca domestica = Musca domestica test (MUSCDO); type: in vivo
Description: Musca domestica-Test (MUSCDO)
(§1) Solvent: dimethyl sulfoxide
(§2) To produce a suitable preparation of active compound, 10 mg of active compound are mixed with 0.5 ml of dimethyl sulfoxide, and the concentrate is diluted with water to the desired concentration.
Vessels containing a sponge treated with sugar solution and the active compound preparation of the desired concentration are populated with 10 adult houseflies (Musca domestica).
After the desired time, the kill in % is determined. 100% means that all of the flies have been killed; 0% means that none of the flies have been killed.

[1] = log P by HPLC on reversed-phase column (C18), EEC directive 79/831 Annex V.A8; type: physicochemical; details: for log p: HPLC reversed-phase C18, 43° C., data refer to the E isomer
Description: The log P values reported in the tables and Preparation Examples above were determined in accordance with EEC directive 79/831 Annex V.A8 by HPLC (High Performance Liquid Chromatography) using a reversed-phase column (C18). Temperature 43° C. The calibration is effected with unbranched alkan-2-ones (having 3 to 16 carbon atoms), for which the log P values are known.

Myzus persicae = Myzus persicae - spray test (MYZUPE); type: in vivo; details: application rate 100 g/ha, Chinese cabbage leaf disks
Summary of the method: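 Chinese cabbage leaf disks carrying all stages of green peach aphid were sprayed with compound in acetone/DMF with emulsifier, diluted in water. After the chosen period, efficacy was scored as % aphids killed.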

Boophilus microplus = Boophilus microplus - injection test (BOOPMI Inj); type: in vivo; details: application rate 20 μg/animal, injection into engorged adult female cattle ticks
Description: Boophilus microplus—Injection Test (BOOPMI Inj)
as §1
To produce a suitable preparation of active compound, 10 mg of active compound are mixed with 0.5 ml of solvent and the concentrate is diluted with solvent to the desired concentration.
1 μl of the active compound solution is injected into the abdomen of 5 engorged adult female cattle ticks (Boophilus microplus). The animals are transferred into dishes and kept in a climate-controlled room.
The activity is assessed after the desired time by laying of fertile eggs. Eggs which are not visibly fertile are stored in a climate-controlled cabinet until the larvae hatch after about 42 days. An efficacy of 100% means that none of the ticks has laid any fertile eggs; 0% means that all the eggs are fertile.

Lucilia cuprina = Lucilia cuprina test (LUCICU); type: in vivo; details: application rate 100 ppm
Description: Lucilia cuprina-Test (LUCICU)
as §1, §2
About 20 L1 larvae of the Australian sheep blowfly (Lucilia cuprina) are transferred into a test vessel containing minced horsemeat and the active compound preparation of the desired concentration.
After the desired time, the kill in % is determined. 100% means that all the larvae have been killed; 0% means that no larvae have been killed.

Tetranychus urticae = Tetranychus urticae - spray test, OP-resistant (TETRUR); type: in vivo; details: application rate 100 g/ha, bean leaf disks
Description: Tetranychus urticae—Spray Test, OP-Resistant (TETRUR)
Solvent: 78.0 parts by weight of acetone • • 1.5 parts by weight of dimethylformamide
Emulsifier: 0.5 parts by weight of alkylaryl polyglycol ether
To produce a suitable active compound preparation, 1 part by weight of active compound is mixed with the stated amounts of solvent and emulsifier, and the concentrate is diluted with emulsifier-containing water to the desired concentration.
Disks of bean leaves (Phaseolus vulgaris) infested with all stages of the greenhouse red spider mite (Tetranychus urticae) are sprayed with an active compound preparation of the desired concentration.
After the desired period of time, the efficacy in % is determined. 100% means that all the spider mites have been killed; 0% means that none of the spider mites have been killed.

## CON=Cc1cc(C)c(NC(=O)c2cc(C(F)F)nn2-c2ncccc2Cl)c(C(=O)NNC(=O)OC)c1 (mixture of isomers) [A-39]
Phaedon cochleariae
  efficacy (beetle larvae killed): 100%
Spodoptera frugiperda
  efficacy (caterpillars killed): 100%
Musca domestica; application rate 100 ppm
  efficacy (kill of adult houseflies): 80%
[1]; Table A
  log p: 2.26
Myzus persicae
  efficacy (aphids killed): 90%
Boophilus microplus
  efficacy (no fertile eggs laid): 100%
Lucilia cuprina
  efficacy (kill of L1 larvae): 100%

## CON=Cc1cc(C)c(NC(=O)c2cc(OC)nn2-c2ncccc2Cl)c(C(=O)NN(C)C(=O)OC)c1 (mixture of isomers) [A-43]
Phaedon cochleariae
  efficacy (beetle larvae killed): 100%
Spodoptera frugiperda
  efficacy (caterpillars killed): 100%
[1]; Table A
  log p: 2.19
Myzus persicae
  efficacy (aphids killed): 100%
Tetranychus urticae
  efficacy (spider mites killed): 100%

## CON=Cc1cc(C)c(NC(=O)c2cc(C(F)(F)F)nn2-c2ncccc2Cl)c(C(=O)NN(C)C(=O)OC)c1 (mixture of isomers) [A-46]
Phaedon cochleariae
  efficacy (beetle larvae killed): 100%
Spodoptera frugiperda
  efficacy (caterpillars killed): 100%
[1]; Table A
  log p: 2.85
Myzus persicae
  efficacy (aphids killed): 90%
Tetranychus urticae
  efficacy (spider mites killed): 100%

## CON=Cc1cc(C)c(NC(=O)c2cc(Br)nn2-c2ncccc2Cl)c(C(=O)NC2(C)CSC2)c1 (mixture of isomers) [B-01]
Phaedon cochleariae
  efficacy (beetle larvae killed): 100%
Spodoptera frugiperda
  efficacy (caterpillars killed): 100%
[1]; Table B
  log p: 3.22
Myzus persicae
  efficacy (aphids killed): 90%
Tetranychus urticae
  efficacy (spider mites killed): 100%

## CON=Cc1cc(C)c(NC(=O)c2cc(C(F)(F)F)nn2-c2ncccc2Cl)c(C(=O)NC2COC2)c1 (mixture of isomers) [B-02]
Phaedon cochleariae
  efficacy (beetle larvae killed): 100%
Spodoptera frugiperda
  efficacy (caterpillars killed): 100%
[1]; Table B
  log p: 2.78
Myzus persicae
  efficacy (aphids killed): 100%
Tetranychus urticae
  efficacy (spider mites killed): 90%
Boophilus microplus
  efficacy (no fertile eggs laid): 100%
Lucilia cuprina
  efficacy (kill of L1 larvae): 100%

## CO/N=C/c1cc(C)c(NC(=O)c2cc(OCC(F)F)nn2-c2ncccc2Cl)c(C(=O)NN(C)C(=O)OC)c1 [A-01, Methyl 2-{2-({[1-(3-chloropyridin-2-yl)-3-(2,2-difluoroethoxy)-1H-pyrazol-5-yl]carbonyl}amino)-5-[(E)-(methoxyimino)methyl]-3-methylbenzoyl}-1-methylhydrazinecarboxylate]
Phaedon cochleariae
  efficacy (beetle larvae killed): 100%
Spodoptera frugiperda
  efficacy (caterpillars killed): 100%
[1]; log P
  chromatographic logP: 2.58
[1]; log p
  chromatographic logP: 2.58
Myzus persicae
  efficacy (aphids killed): 90%
Tetranychus urticae
  efficacy (spider mites killed): 90%

## CO/N=C/c1cc(C)c(NC(=O)c2cc(OC(F)F)nn2-c2ncccc2Cl)c(C(=O)NNC(=O)OC)c1 [A-02, Methyl 2-{2-({[1-(3-chloropyridin-2-yl)-3-(difluoromethoxy)-1H-pyrazol-5-yl]carbonyl}amino)-5-[(E)-(methoxyimino)methyl]-3-methylbenzoyl}hydrazinecarboxylate]
Phaedon cochleariae
  efficacy (beetle larvae killed): 100%
Spodoptera frugiperda
  efficacy (caterpillars killed): 100%
[1]; log P
  chromatographic logP: 2.28
[1]; log p
  chromatographic logP: 2.38
Myzus persicae
  efficacy (aphids killed): 90%
Tetranychus urticae
  efficacy (spider mites killed): 90%

## CON=Cc1cc(C)c(NC(=O)c2cc(C(F)(F)F)nn2-c2ncccc2Cl)c(C(=O)NNC(=O)OC)c1 [A-04]
Phaedon cochleariae
  efficacy (beetle larvae killed): 100%
Spodoptera frugiperda
  efficacy (caterpillars killed): 100%
[1]; Table A
  log p: 2.65
Myzus persicae
  efficacy (aphids killed): 100%
Boophilus microplus
  efficacy (no fertile eggs laid): 100%
Lucilia cuprina
  efficacy (kill of L1 larvae): 100%

## CON=Cc1cc(C)c(NC(=O)c2cc(C(F)(F)F)nn2-c2ncccc2Cl)c(C(=O)NNC(=O)Oc2ccccc2)c1 [A-19]
Phaedon cochleariae
  efficacy (beetle larvae killed): 100%
Spodoptera frugiperda
  efficacy (caterpillars killed): 100%
[1]; Table A
  log p: 3.02
Tetranychus urticae
  efficacy (spider mites killed): 90%
Boophilus microplus
  efficacy (no fertile eggs laid): 95%
Lucilia cuprina
  efficacy (kill of L1 larvae): 100%

## CON=Cc1cc(C)c(NC(=O)c2cc(C(F)(F)F)nn2-c2ncccc2Cl)c(C(=O)N(C)NC(=O)Oc2ccccc2)c1 [A-26]
Spodoptera frugiperda
  efficacy (caterpillars killed): 100%
[1]; Table A
  log p: 3.72
Tetranychus urticae
  efficacy (spider mites killed): 90%

## C#CCOC(=O)NN(C)C(=O)c1cc(C=NOC)cc(C)c1NC(=O)c1cc(C(F)(F)F)nn1-c1ncccc1Cl [A-29]
Spodoptera frugiperda
  efficacy (caterpillars killed): 100%
[1]; Table A
  log p: 3.16
Myzus persicae
  efficacy (aphids killed): 90%
Tetranychus urticae
  efficacy (spider mites killed): 90%
Boophilus microplus
  efficacy (no fertile eggs laid): 95%
Lucilia cuprina
  efficacy (kill of L1 larvae): 100%

## CON=Cc1cc(C)c(NC(=O)c2cc(OCC(F)F)nn2-c2ncccc2Cl)c(C(=O)NC(C)C)c1 [C-19]
Spodoptera frugiperda
  efficacy (caterpillars killed): 100%
Musca domestica; application rate 20 ppm
  efficacy (kill of adult houseflies): 80%
[1]; Table C
  log p: 3.07
Myzus persicae
  efficacy (aphids killed): 90%
Boophilus microplus
  efficacy (no fertile eggs laid): 100%
Lucilia cuprina
  efficacy (kill of L1 larvae): 100%

## CNC(=O)c1cc(C=NOC)cc(C)c1NC(=O)c1cc(OCC(F)F)nn1-c1ncccc1Cl [C-20]
Phaedon cochleariae
  efficacy (beetle larvae killed): 83%
Spodoptera frugiperda
  efficacy (caterpillars killed): 100%
[1]; Table C
  log p: 2.57
Myzus persicae
  efficacy (aphids killed): 90%
Boophilus microplus
  efficacy (no fertile eggs laid): 100%
Lucilia cuprina
  efficacy (kill of L1 larvae): 100%

## CON=Cc1cc(C)c(NC(=O)c2cc(C(F)F)nn2-c2ncccc2Cl)c(C(=O)NC2CC2)c1 [C-34]
Phaedon cochleariae
  efficacy (beetle larvae killed): 100%
Spodoptera frugiperda
  efficacy (caterpillars killed): 100%
[1]; Table C
  log p: 2.72
Myzus persicae
  efficacy (aphids killed): 100%
Boophilus microplus
  efficacy (no fertile eggs laid): 100%
Lucilia cuprina
  efficacy (kill of L1 larvae): 100%

## COCC(C)NC(=O)c1cc(C=NOC)cc(C)c1NC(=O)c1cc(OC)nn1-c1ncccc1Cl (stereo not drawn) [C-41]
Spodoptera frugiperda
  efficacy (caterpillars killed): 100%
[1]; Table C
  log p: 2.51
Myzus persicae
  efficacy (aphids killed): 100%
Tetranychus urticae
  efficacy (spider mites killed): 90%

## CON=Cc1cc(C)c(NC(=O)c2cc(CF)nn2-c2ncccc2Cl)c(C(=O)NC(C)C2CC2)c1 (stereo not drawn) [C-43]
Phaedon cochleariae
  efficacy (beetle larvae killed): 100%
Spodoptera frugiperda
  efficacy (caterpillars killed): 100%
[1]; Table C
  log p: 2.96
Myzus persicae
  efficacy (aphids killed): 90%
Tetranychus urticae
  efficacy (spider mites killed): 90%

## CON=Cc1cc(C)c(NC(=O)c2cc(CF)nn2-c2ncccc2Cl)c(C(=O)NC(C)(C)C)c1 [C-44]
Phaedon cochleariae
  efficacy (beetle larvae killed): 100%
Spodoptera frugiperda
  efficacy (caterpillars killed): 100%
[1]; Table C
  log p: 3.00
Myzus persicae
  efficacy (aphids killed): 100%
Tetranychus urticae
  efficacy (spider mites killed): 90%

## CNC(=O)c1cc(C=NOC)cc(C)c1NC(=O)c1cc(CF)nn1-c1ncccc1Cl [C-45]
Phaedon cochleariae
  efficacy (beetle larvae killed): 100%
Spodoptera frugiperda
  efficacy (caterpillars killed): 100%
[1]; Table C
  log p: 2.14
Myzus persicae
  efficacy (aphids killed): 100%
Tetranychus urticae
  efficacy (spider mites killed): 100%

## CCNC(=O)c1cc(C=NOC)cc(C)c1NC(=O)c1cc(OCC(F)F)nn1-c1ncccc1Cl [C-46]
Spodoptera frugiperda
  efficacy (caterpillars killed): 100%
[1]; Table C
  log p: 2.81
Myzus persicae
  efficacy (aphids killed): 100%
Boophilus microplus
  efficacy (no fertile eggs laid): 100%
Lucilia cuprina
  efficacy (kill of L1 larvae): 100%

## COCCNC(=O)c1cc(C=NOC)cc(C)c1NC(=O)c1cc(C(F)F)nn1-c1ncccc1Cl [C-59]
Phaedon cochleariae
  efficacy (beetle larvae killed): 100%
Spodoptera frugiperda
  efficacy (caterpillars killed): 100%
[1]; Table C
  log p: 2.53
Myzus persicae
  efficacy (aphids killed): 90%

## COCC(C)NC(=O)c1cc(C=NOC)cc(C)c1NC(=O)c1cc(C(F)F)nn1-c1ncccc1Cl (stereo not drawn) [C-60]
Phaedon cochleariae
  efficacy (beetle larvae killed): 100%
Spodoptera frugiperda
  efficacy (caterpillars killed): 100%
[1]; Table C
  log p: 2.84
Myzus persicae
  efficacy (aphids killed): 100%

## C#CCNC(=O)c1cc(C=NOC)cc(C)c1NC(=O)c1cc(C(F)F)nn1-c1ncccc1Cl [C-62]
Phaedon cochleariae
  efficacy (beetle larvae killed): 100%
Spodoptera frugiperda
  efficacy (caterpillars killed): 100%
[1]; Table C
  log p: 2.69
Myzus persicae
  efficacy (aphids killed): 90%

## CCNC(=O)c1cc(C=NOC)cc(C)c1NC(=O)c1cc(C(F)F)nn1-c1ncccc1Cl [C-63]
Phaedon cochleariae
  efficacy (beetle larvae killed): 100%
Spodoptera frugiperda
  efficacy (caterpillars killed): 100%
[1]; Table C
  log p: 2.71
Myzus persicae
  efficacy (aphids killed): 100%

From patent publication US9609868B2, “Alkoximino-substituted anthranilic acid diamides as pesticides” (BAYER CROPSCIENCE AKTIENGESELLSCHAFT, priority 2013, dated 2017)
